Reference: PubChem BioAssay (NCI)
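GI50 marks 50% less growth. TGI: concentration producing complete growth inhibition.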

Tests used:
Experiment in all cases: growth of human tumour cells (NCI), 384-well format
[1] = tested on: OVCAR-3 ovarian
[2] = tested on: PC-3 prostate
[3] = tested on: NCI-H522 lung
[4] = tested on: IGROV1 ovarian
[5] = tested on: NCI/ADR-RES ovarian
[6] = tested on: OVCAR-5 ovarian
[7] = tested on: SK-MEL-28 melanoma
[8] = tested on: SN12C renal
[9] = tested on: DU-145 prostate
[10] = tested on: KM12 colon
[11] = tested on: MDA-MB-435 melanoma
[12] = tested on: OVCAR-4 ovarian
[13] = tested on: NCI-H322M lung
[14] = tested on: MCF7 breast
[15] = tested on: ACHN renal
[16] = tested on: SK-MEL-5 melanoma
[17] = tested on: MDA-MB-468 breast
[18] = tested on: OVCAR-8 ovarian
[19] = tested on: LOX IMVI melanoma
[20] = tested on: HCC-2998 colon
[21] = tested on: EKVX NSCLC
[22] = tested on: SF-295 CNS
[23] = tested on: HT29 colon
[24] = tested on: HOP-62 NSCLC
[25] = tested on: UACC-257 melanoma
[26] = tested on: HS 578T breast
[27] = tested on: TK-10 renal
[28] = tested on: MDA-MB-231 breast
[29] = tested on: NCI-H23 lung
[30] = tested on: CCRF-CEM leukemia
[31] = tested on: HCT-15 colon
[32] = tested on: NCI-H226 lung
[33] = tested on: UO-31 renal
[34] = tested on: UACC-62 melanoma
[35] = tested on: SF-268 CNS
[36] = tested on: M14 melanoma
[37] = tested on: A549 NSCLC
[38] = tested on: A498 renal
[39] = tested on: U251 glioblastoma
[40] = tested on: NCI-H460 NSCLC
[41] = tested on: BT-549 breast
[42] = tested on: MALME-3M melanoma
[43] = tested on: SF-539 CNS
[44] = tested on: T-47D breast
[45] = tested on: SW-620 colon
[46] = tested on: SNB-75 CNS
[47] = tested on: SNB-19 CNS
[48] = tested on: MOLT-4 leukemia
[49] = tested on: HOP-92 NSCLC
[50] = tested on: RPMI-8226 leukemia
[51] = tested on: RXF 393 renal
[52] = tested on: K-562 leukemia
[53] = tested on: HL-60(TB) leukemia
[54] = tested on: SR leukemia
[55] = tested on: 786-0 renal
[56] = tested on: CAKI-1 renal
[57] = tested on: SK-OV-3 ovarian
[58] = tested on: COLO 205 colon

Work on `O=C(NOCC1CC1)c1ccc(F)c(F)c1Nc1ccc(I)cc1Cl` yielded a GI50 [1] of 1.64 µM, a TGI [1] of 3.32 µM and a GI50 [2] of 3.5 µM. For the same compound, the TGI [2] was 11.8 µM, the GI50 [3] was 1.82 µM and the TGI [3] was 4.09 µM. It also gave a GI50 [4] of 1.08 µM, a TGI [4] of 2.81 µM and a GI50 [5] of 1.74 µM. It also gave a TGI [5] of 3.69 µM, a GI50 [6] of 0.304 µM and a TGI [6] of 2.65 µM. The GI50 [7] was 0.0352 µM, the TGI [7] was 0.208 µM and the GI50 [8] was 1.04 µM. The TGI [8] was 4.43 µM, the GI50 [9] was 3.49 µM and the TGI [9] was 15.3 µM. It also gave a GI50 [10] of 0.414 µM, a TGI [10] of 3.93 µM and a GI50 [11] of 0.11 µM. It also gave a TGI [11] of 6.03 µM, a GI50 [12] of 1.49 µM and a TGI [12] of 5.03 µM. It also gave a GI50 [13] of 1.23 µM, a TGI [13] of 6.8 µM and a GI50 [14] of 2.9 µM. For the same compound, the TGI [14] was 10.7 µM, the GI50 [15] was 1.66 µM and the TGI [15] was 15.4 µM. The GI50 [16] was 0.104 µM, the TGI [16] was 1.58 µM and the GI50 [17] was 1.85 µM. The TGI [17] was 3.55 µM, the GI50 [18] was 1.92 µM and the TGI [18] was 4.82 µM. The GI50 [19] was 0.337 µM, the TGI [19] was 1.69 µM and the GI50 [20] was 0.0847 µM. The TGI [20] was 0.54 µM, the GI50 [21] was 1.72 µM and the TGI [21] was 4.29 µM. The GI50 [22] was 2.25 µM, the TGI [22] was 6.09 µM and the GI50 [23] was 0.279 µM. For the same compound, the TGI [23] was 10.3 µM, the GI50 [24] was 0.868 µM and the TGI [24] was 6.43 µM. The GI50 [25] was 0.046 µM, the TGI [25] was 0.234 µM and the GI50 [26] was 1.84 µM. For the same compound, the TGI [26] was 6.16 µM, the GI50 [27] was 1.91 µM and the TGI [27] was 5.84 µM. For the same compound, the GI50 [28] was 0.896 µM, the TGI [28] was 2.96 µM and the GI50 [29] was 0.246 µM. It also gave a TGI [29] of 1.91 µM, a GI50 [30] of 1.8 µM and a TGI [30] of 3.37 µM. For the same compound, the GI50 [31] was 2.29 µM, the TGI [31] was 11.5 µM and the GI50 [32] was 1.18 µM. For the same compound, the TGI [32] was 4.32 µM, the GI50 [33] was 2.34 µM and the TGI [33] was > 100 µM. The GI50 [34] was 0.04 µM, the TGI [34] was 0.259 µM and the GI50 [35] was 3.18 µM. For the same compound, the TGI [35] was 14.7 µM, the GI50 [36] was 0.0349 µM and the TGI [36] was 0.176 µM. The GI50 [37] was 1.03 µM, the TGI [37] was 3.84 µM and the GI50 [38] was 1.69 µM. For the same compound, the TGI [38] was 12.2 µM, the GI50 [39] was 2.11 µM and the TGI [39] was 8.04 µM. It also gave a GI50 [40] of 1.38 µM, a TGI [40] of 11.4 µM and a GI50 [41] of 2.73 µM. For the same compound, the TGI [41] was 14.8 µM, the GI50 [42] was 0.017 µM and the TGI [42] was 0.0448 µM. The GI50 [43] was 1.62 µM, the TGI [43] was 3.61 µM and the GI50 [44] was 2.35 µM. The TGI [44] was 7.06 µM, the GI50 [45] was 0.105 µM and the TGI [45] was 1.87 µM. For the same compound, the GI50 [46] was 1.88 µM, the TGI [46] was 9.45 µM and the GI50 [47] was 1.34 µM. For the same compound, the TGI [47] was 5.8 µM, the GI50 [48] was 1.65 µM and the TGI [48] was 3.02 µM. For the same compound, the GI50 [49] was 1.06 µM, the TGI [49] was 2.41 µM and the GI50 [50] was 0.277 µM. It also gave a TGI [50] of 1.78 µM, a GI50 [51] of 2.11 µM and a TGI [51] of 11.6 µM. The GI50 [52] was 1.75 µM, the TGI [52] was 10.7 µM and the GI50 [53] was 0.0375 µM. The TGI [53] was 0.808 µM, the GI50 [54] was 1.65 µM and the TGI [54] was 3.26 µM. The GI50 [55] was 1.86 µM, the TGI [55] was 9.93 µM and the GI50 [56] was 1.03 µM. It also gave a TGI [56] of 3.07 µM, a GI50 [57] of 3.16 µM and a TGI [57] of 13.3 µM. For the same compound, the GI50 [58] was 0.0566 µM and the TGI [58] was 1.01 µM.
